The values that follow come from PubChem BioAssay AID1259246 (Broad Institute, 2017).

Inconclusive results are not listed. Activity calls are given as the source filed them.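 The calls were made as follows: active = valid dose-response fit whose half-maximal growth-inhibiting concentration is at or below a set limit above the top tested dose; inconclusive = flat fit with effect between 30 and 70%, or poor fit; inactive = half-maximal concentration above a set limit.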

One test in a line: antibacterial activity against Clostridioides difficile – 10-point retest, dose response (AID 1259246). The following applies: Clostridioides difficile clinical isolate growth, OD600, 24 h; at 60 µM (top of the series).
Consider `CNC[C@@H]1Oc2ccc(N)cc2CC(=O)N([C@H](C)CO)C[C@H]1C`, for which the activity change, negative = inhibition is 0.918% (inactive). For `Cc1noc(C)c1S(=O)(=O)Nc1ccc2c(c1)C(=O)N([C@@H](C)CO)C[C@H](C)[C@@H](CN(C)Cc1ccc3c(c1)OCO3)OCCCC[C@@H](C)O2`, the activity change, negative = inhibition was 3.17% (inactive). The same measure, in the same setting: the result for `C[C@@H]1CN([C@H](C)CO)C(=O)Cc2cc(NC(=O)CCCN(C)C)ccc2O[C@@H]1CN(C)Cc1ccc(-c2ccccc2)cc1` reads 28.6% (inactive).

Regarding `C[C@H](CO)N1C[C@H](C)[C@@H](CN(C)S(=O)(=O)c2cn(C)cn2)OCCCC[C@H](C)Oc2ccc(NC(=O)Nc3cccc4ccccc34)cc2C1=O`, the activity change, negative = inhibition is 4.46% (inactive). Same read-out and setting: the result for `CO[C@H]1CN(C)C(=O)c2ccc(NC(=O)c3ccc(-c4ccccc4)cc3)cc2OC[C@@H](C)NC[C@@H]1C` reads 12.9% (inactive). Consider `COCC#Cc1ccc2c(c1)O[C@H](CN(C)Cc1ccc3c(c1)OCO3)[C@H](C)CN([C@@H](C)CO)S2(=O)=O`, for which the activity change, negative = inhibition was 6.47% (inactive).

Still in this test, the particulars now being: Clostridioides difficile clinical isolate growth, OD600, 24 h; at 120 µM (top of the series).
Turning to `CNC[C@H]1Oc2cc(C#CCC(C)C)ccc2S(=O)(=O)N([C@H](C)CO)C[C@@H]1C`, the activity change, negative = inhibition is 19.7% (inactive). Consider `C[C@@H]1CN([C@H](C)CO)C(=O)c2cc(NC(=O)Nc3ccc(F)cc3)ccc2O[C@@H](C)CCCCO[C@H]1CN(C)C(=O)c1ccccc1`, for which the activity change, negative = inhibition was 41% (inactive). On to `Cc1ccc(S(=O)(=O)N[C@@H]2CC[C@@H](CCNS(=O)(=O)Cc3ccccc3)O[C@H]2CO)cc1`, for which the activity change, negative = inhibition is -1.85% (inactive). Still for that read-out and setting: the result for `C[C@@H]1CN([C@H](C)CO)S(=O)(=O)c2ccc(C#Cc3ccccc3F)cc2O[C@@H]1CN(C)CC1CCOCC1` reads 19.4% (inactive); that for `CO[C@H]1CN(C)C(=O)c2ccc(NC(=O)c3nc4ccccc4s3)cc2OC[C@H](C)NC[C@@H]1C`, -6.99% (inactive); that for `C[C@@H]1CN([C@H](C)CO)S(=O)(=O)c2ccc(/C=C/c3ccccc3)cc2O[C@H]1CN(C)C(=O)c1ccncc1`, 17.1% (inactive).

Turning to `C[C@H](CO)N1C[C@H](C)[C@@H](CN(C)C(=O)c2ccccc2)OCCCC[C@H](C)Oc2ccc(NC(=O)Nc3cccc4ccccc34)cc2C1=O`, the activity change, negative = inhibition was 37.5% (inactive). Same read-out and setting: the result for `COc1ccccc1C#Cc1ccc([C@H]2[C@@H](CO)N(C(=O)C3CC3)[C@H]2C#N)cc1` reads 27.5% (inactive); that for `C[C@@H]1CCCCO[C@H](CN(C)C)[C@H](C)CN([C@H](C)CO)C(=O)c2cc(NC(=O)c3ccncc3)ccc2O1`, 45.3% (inactive). Turning to `CNC[C@@H]1Oc2ccc(NC(=O)CCCN(C)C)cc2CC(=O)N([C@@H](C)CO)C[C@H]1C`, the activity change, negative = inhibition is -5.36% (inactive). In the case of `CCCC#Cc1ccc2c(c1)O[C@H](CN(C)Cc1ccc3c(c1)OCO3)[C@H](C)CN([C@@H](C)CO)S2(=O)=O`, the activity change, negative = inhibition is 25.5% (inactive). The same measure, in the same setting: the same measure for `C[C@@H]1CN([C@H](C)CO)C(=O)c2cc(NS(=O)(=O)c3ccccc3)ccc2O[C@@H](C)CCCCO[C@H]1CN(C)S(=O)(=O)c1ccc(F)cc1`: 12.7% (inactive); for `CC(C)CC#Cc1ccc2c(c1)O[C@H](CN(C)Cc1ccc3c(c1)OCO3)[C@H](C)CN([C@@H](C)CO)S2(=O)=O`: 26.5% (inactive). The same measure, in the same setting: the same measure for `O=C(C[C@H]1C[C@@H]2c3cc(NS(=O)(=O)c4ccc(F)cc4)ccc3O[C@@H]2[C@H](CO)O1)NCc1ccc(-c2ccccc2)cc1`: 25.5% (inactive); for `C[C@@H]1CN([C@H](C)CO)C(=O)Cc2cc(NC(=O)C3CC3)ccc2O[C@@H]1CN(C)Cc1ccc(Oc2ccccc2)cc1`: 22.6% (inactive); for `C[C@H]1CN([C@@H](C)CO)S(=O)(=O)c2ccc(C#CC3CCCCC3)cc2O[C@H]1CN(C)Cc1cccnc1`: 19.1% (inactive). Regarding `C[C@@H]1CN([C@H](C)CO)C(=O)c2cccc(NC(=O)Nc3ccc4c(c3)OCO4)c2O[C@H]1CN(C)Cc1ccc(-c2ccccc2)cc1`, the activity change, negative = inhibition was 6.58% (inactive). As to `Cc1ccc(S(=O)(=O)N2C[C@@H](O)COC[C@H]3O[C@H](CC(=O)NCc4ccccc4Cl)CC[C@@H]32)cc1`, the activity change, negative = inhibition was 13.4% (inactive). In the case of `C[C@H](CO)N1C[C@H](C)[C@@H](CN(C)Cc2ccc3c(c2)OCO3)Oc2c(NC(=O)Nc3ccc(C(F)(F)F)cc3)cccc2C1=O`, the activity change, negative = inhibition was 28.9% (inactive). With `CC(C)NC(=O)Nc1ccc2c(c1)CC(=O)N([C@H](C)CO)C[C@@H](C)[C@@H](CN(C)Cc1ccc(-c3ccccc3)cc1)O2`, the activity change, negative = inhibition is 20.5% (inactive). Take `C[C@@H]1CN([C@@H](C)CO)S(=O)(=O)c2ccc(C#CC3CCCCC3)cc2O[C@H]1CN(C)Cc1cccnc1`: the activity change, negative = inhibition was 17.6% (inactive). As for `C/C=C/c1ccc2c(c1)O[C@H](CN(C)CC1CCOCC1)[C@H](C)CN([C@@H](C)CO)S2(=O)=O`, the activity change, negative = inhibition is -1.64% (inactive).

For `C[C@@H]1CN([C@H](C)CO)C(=O)c2cccc(NC(=O)Nc3ccc(C(F)(F)F)cc3)c2O[C@H]1CN(C)S(=O)(=O)c1ccc(Cl)cc1`, the activity change, negative = inhibition is 48.2% (inactive). Same read-out and setting: the same measure for `C[C@@H]1CN([C@@H](C)CO)S(=O)(=O)c2ccc(/C=C/c3ccccc3)cc2O[C@H]1CN(C)C(=O)c1ccncc1`: 14.4% (inactive); for `C/C=C/c1ccc2c(c1)O[C@@H](CN(C)Cc1ccc(C(=O)O)cc1)[C@H](C)CN([C@@H](C)CO)S2(=O)=O`: -3.63% (inactive). On to `COc1ccc(CN(C)C[C@@H]2OCCCC[C@H](C)Oc3ccc(NC(=O)Nc4cccc5ccccc45)cc3C(=O)N([C@@H](C)CO)C[C@H]2C)cc1`, for which the activity change, negative = inhibition is 42% (inactive). As to `C[C@@H]1CN([C@H](C)CO)C(=O)c2cc(NC(=O)Nc3cccc4ccccc34)ccc2O[C@@H](C)CCCCO[C@H]1CN(C)S(=O)(=O)c1ccc(F)cc1`, the activity change, negative = inhibition is 38% (inactive). As to `CNC[C@H]1Oc2ccc(NC(=O)C3CC3)cc2CC(=O)N([C@H](C)CO)C[C@H]1C`, the activity change, negative = inhibition was -1.55% (inactive). On the same count and under the same terms, the result for `C[C@@H]1CN([C@@H](C)CO)S(=O)(=O)c2ccc(/C=C/c3ccccc3)cc2O[C@H]1CN(C)Cc1cccnc1` reads 71.2% (inactive); that for `C[C@@H]1CN([C@H](C)CO)C(=O)c2cc(NC(=O)c3ccccc3)ccc2O[C@@H](C)CCCCO[C@H]1CN(C)S(=O)(=O)c1ccc(F)cc1`, 10.1% (inactive).

Consider `C[C@@H]1CN([C@@H](C)CO)S(=O)(=O)c2ccc(C#CCN(C)C)cc2O[C@@H]1CN(C)Cc1ccc(F)cc1`, for which the activity change, negative = inhibition is 4.72% (inactive). `COc1ccc(NC(=O)Nc2cccc3c2O[C@H](CN(C)Cc2ccc(Oc4ccccc4)cc2)[C@@H](C)CN([C@H](C)CO)C3=O)cc1`: the activity change, negative = inhibition was 17.1% (inactive). The same measure, in the same setting: the same measure for `O=C(C[C@H]1C[C@H]2c3cc(NC(=O)Nc4ccccc4)ccc3O[C@H]2[C@H](CO)O1)NC1CCCC1`: -1.4% (inactive). On the same count and under the same terms, the result for `C[C@H]1CCCCO[C@H](CN(C)S(=O)(=O)c2ccc(F)cc2)[C@@H](C)CN([C@@H](C)CO)C(=O)c2cc(NC(=O)Nc3cccc4ccccc34)ccc2O1` reads 21.6% (inactive); that for `C[C@@H]1CN([C@H](C)CO)C(=O)c2cccc(NC(=O)Nc3ccc(C(F)(F)F)cc3)c2O[C@H]1CN(C)C(=O)NC1CCCCC1`, 28.2% (inactive). Still for that read-out and setting: the same measure for `CNC[C@H]1Oc2c(N)cccc2C(=O)N([C@@H](C)CO)C[C@H]1C`: -0.016% (inactive); for `C[C@H](CO)N1C[C@H](C)[C@H](CN(C)S(=O)(=O)c2ccc(F)cc2)OCCCC[C@H](C)Oc2ccc(NC(=O)Nc3cccc4ccccc34)cc2C1=O`: 34.7% (inactive). Consider `C[C@H](CO)N1C[C@H](C)[C@H](CN(C)Cc2ccc(Oc3ccccc3)cc2)Oc2ccc(NC(=O)C3CC3)cc2CC1=O`, for which the activity change, negative = inhibition is 12.9% (inactive).

The same test, now with this note: Clostridioides difficile clinical isolate growth, OD600, 24 h; at 135 µM (top of the series).
Take `C[C@H]1CN([C@@H](C)CO)C(=O)Cc2cc(NC(=O)C3CC3)ccc2O[C@@H]1CN(C)Cc1ccc(Oc2ccccc2)cc1`: the activity change, negative = inhibition was 17.9% (inactive). Consider `C[C@H](CO)N1C[C@H](C)[C@H](CN(C)Cc2ccc(F)cc2)Oc2ncc(-c3cc4ccccc4o3)cc2C1=O`, for which the activity change, negative = inhibition is 52.5% (inactive).

With `CO[C@@H]1CN(C)C(=O)c2cc(NC(=O)c3nc4ccccc4s3)ccc2OC[C@H](C)N(Cc2ccncc2)C[C@H]1C`, the activity change, negative = inhibition is 7% (inactive). Still for that read-out and setting: the same measure for `O=C(C[C@H]1C[C@H]2c3cc(NC(=O)Nc4ccc(F)cc4)ccc3O[C@H]2[C@@H](CO)O1)NC1CCCCC1`: -1.5% (inactive); for `C[C@@H]1CN([C@H](C)CO)C(=O)Cc2cc(N(C)C)ccc2O[C@@H]1CN(C)Cc1ccc(Oc2ccccc2)cc1`: 23.7% (inactive). On to `O=C(C[C@@H]1C[C@@H]2c3cc(NS(=O)(=O)c4ccc(F)cc4)ccc3O[C@@H]2[C@@H](CO)O1)NCc1ccc(-c2ccccc2)cc1`, for which the activity change, negative = inhibition is 18.3% (inactive). On to `CNC[C@H]1Oc2ccc(NC(=O)C3CC3)cc2CC(=O)N([C@@H](C)CO)C[C@H]1C`, for which the activity change, negative = inhibition is -0.275% (inactive). With `Cc1ccc(S(=O)(=O)N[C@H]2CC[C@@H](CCNS(=O)(=O)Cc3ccccc3)O[C@H]2CO)cc1`, the activity change, negative = inhibition is 3.07% (inactive). Turning to `C[C@@H]1CN([C@@H](C)CO)C(=O)Cc2cc(NS(=O)(=O)c3ccccc3)ccc2O[C@@H]1CN(C)Cc1ccc(-c2ccccc2)cc1`, the activity change, negative = inhibition was 17.3% (inactive). Consider `C[C@H]1CN([C@@H](C)CO)C(=O)Cc2cc(NC(=O)CCCN(C)C)ccc2O[C@H]1CN(C)Cc1ccc(Oc2ccccc2)cc1`, for which the activity change, negative = inhibition is 10.5% (inactive).
